Tests used:
Sm^R MG1655 E. coli = test: Selection of resistant E. coli subpopulation in mouse gut with β-lactam in drinking water; assay type: in vivo; conditions: mice on water containing streptomycin and ampicillin; gavaged 99.9% Amp^S / 0.1% Amp^R; within 1-2 days
Experimental: Mouse experiments with E. coli engraftment, antibiotic water, and phage treatment. Animal procedures were approved by the University of California, San Francisco (UCSF) Institutional Animal Care and Use Committee (IACUC), and animal experiments performed were in compliance with ethical regulations. Specific pathogen free female BALB/c mice from the vendor Taconic were used for all mouse experiments. Streptomycin water was prepared by dissolving USP grade streptomycin sulfate (VWR 0382) in autoclaved tap water to a final concentration of 5 mg/ml and passing through 0.45 μm filtration units. Mice were provided streptomycin water for 1 day, followed by oral gavage of 0.2 ml containing approximately 10^9 CFU of streptomycin-resistant E. coli. Mice were kept on streptomycin water thereafter to maintain colonization. For selection with β-lactam antibiotics, USP grade ampicillin sodium salt (Teknova A9510) or USP grade carbenicillin disodium salt (Teknova C2110) was also dissolved in the water to a final concentration of 1 mg/ml; carbenicillin was preferred for its increased stability over ampicillin (Bobrowski, M. & Borowski, E. et al., Microbiology, 68, 263-272 (1971)). Drinking water containing streptomycin was prepared fresh weekly; with the addition of a β-lactam antibiotic, it was prepared fresh every 3-4 days. […]

[1] = system: Sm^R E. coli MG1655 or W1655 F+; test: Eradication of sensitive E. coli colonizing the mouse gut by carbenicillin water; assay type: in vivo
Experimental: Mouse experiments with E. coli engraftment, antibiotic water, and phage treatment. Animal procedures were approved by the University of California, San Francisco (UCSF) Institutional Animal Care and Use Committee (IACUC), and animal experiments performed were in compliance with ethical regulations. Specific pathogen free female BALB/c mice from the vendor Taconic were used for all mouse experiments. Streptomycin water was prepared by dissolving USP grade streptomycin sulfate (VWR 0382) in autoclaved tap water to a final concentration of 5 mg/ml and passing through 0.45 μm filtration units. Mice were provided streptomycin water for 1 day, followed by oral gavage of 0.2 ml containing approximately 10^9 CFU of streptomycin-resistant E. coli. Mice were kept on streptomycin water thereafter to maintain colonization. For selection with β-lactam antibiotics, USP grade ampicillin sodium salt (Teknova A9510) or USP grade carbenicillin disodium salt (Teknova C2110) was also dissolved in the water to a final concentration of 1 mg/ml; carbenicillin was preferred for its increased stability over ampicillin (Bobrowski, M. & Borowski, E. et al., Microbiology, 68, 263-272 (1971)). Drinking water containing streptomycin was prepared fresh weekly; with the addition of a β-lactam antibiotic, it was prepared fresh every 3-4 days. For phage treatment, filtered phage solutions stored at −80° C. were thawed and used directly for oral gavage. Unfiltered phage solutions were precipitated by diluting approximately 5-fold in PBS, adding 0.2 volumes phage precipitation solution (20% PEG-8000, 2.5 M NaCl), incubating for 15 min on ice, pelleting at 15,000-21,000 g for 15 min at 4° C., resuspending in PBS, centrifuging to pellet insoluble matter, and filtering through 0.45 μm. Heat-inactivated phage were prepared by incubating 1 ml aliquots at 95° C. in a water bath for 30 min. Streptomycin-treated mice colonized with Sm^R E. coli were orally gavaged with 0.2 ml of phage and placed on drinking water containing both streptomycin and carbenicillin.
Enumeration and culture of E. coli from mouse feces. […]

[2] = Carbenicillin bioassay of culture supernatants; conditions: co-cultures expressing β-lactamase; 4 hours of growth; detection limit approximately 2.5 μg/ml
Experimental: Carbenicillin bioassay. Cultures were sampled over time, cells were pelleted at 21,000 g for 1 min, and the supernatant was transferred to a new tube and frozen at −20° C. until all timepoints were collected. The supernatants were thawed and assayed using a Kirby-Bauer disk diffusion test. An overnight culture of the indicator organism (Bacillus subtilis 168) was diluted in saline to an OD600 of 0.1. A cotton swab was dipped into this dilution and spread across LB agar, antibiotic sensitivity disks (Fisher Scientific S70150A) were overlaid using tweezers, and 20 μl of the supernatant was applied to the disk. At the same time, carbenicillin standards were prepared from 1 μg/ml to 100 μg/ml and also applied to discs. Plates were incubated overnight at 37° C. and imaged the following morning.

gut microbiota = test: 16S rRNA gene sequencing of streptomycin-treated mice; assay type: in vivo; conditions: streptomycin water 5 mg/ml
Experimental: 16S rRNA gene sequencing. Mouse fecal pellets were stored at −80° C. DNA was extracted from single pellets using a ZymoBIOMICS 96 MagBead DNA Kit and 16S rRNA gene sequencing was performed using a dual indexing strategy (Gohl, D. M. et al., Nat. Biotechnol. 34, 942-949 (2016)). Briefly, a 22-cycle primary PCR was performed using KAPA HiFi Hot Start DNA polymerase (KAPA KK2502) and V4 515F/806R Nextera primers. The reaction was diluted in UltraPure DNase/RNase-free water (Life Tech 0977-023) and used as template for a 10-cycle secondary (indexing) PCR using sample-specific dual indexing primers. […] The DNA was gel extracted using a MinElute Gel Extraction Kit (Qiagen 28604), quantified by qPCR using a KAPA Library Quantification Kit for Illumina Platforms (KAPA KK4824), and paired-end sequenced on the Illumina MiSeq platform. Data were processed using a 16S rRNA gene analysis pipeline (https://github.com/jbisanz/AmpliconSeq) based on QIIME2 (Bolyen, E. et al., Nat. Biotechnol. 37, 852-857 (2019)) incorporating DADA2 (Callahan, B. J. et al., Nat. Methods, 13, 581-583 (2016).), and analyzed using R packages qiime2R v0.99.23 (https://github.com/jbisanz/qiime2R), phyloseq v1.33.0 (McMurdie, P. J. & Holmes, S., PLoS One, 8, e61217 (2013)), and phylosmith v1.0.4 (Smith, S. D., Journal of Open Source Software 4, 1442 (2019)). […]

CC1(C)S[C@@H]2[C@H](NC(=O)[C@H](N)c3ccccc3)C(=O)N2[C@H]1C(=O)O [ampicillin]
increase in the percent of Amp^R E. coli in feces (Sm^R MG1655 E. coli): 3 orders of magnitude

CC1(C)S[C@@H]2[C@H](NC(=O)C(C(=O)O)c3ccccc3)C(=O)N2[C@H]1C(=O)O (stereo partly drawn) [carbenicillin]
E. coli colonization level over the course of treatment ([1]; all mice, below limit of detection): < 10^2 CFU/g | mice with recolonization when selection was lifted ([1]; carbenicillin removed on Day 7): 5/6 | median E. coli colonization level ([1]; first day of carbenicillin in water, decreased from 9.6×10^9): 2.0×10^3 CFU/gram feces | carbenicillin in culture supernatants [2]: not detectable

[H]/N=C(/N)N[C@H]1[C@H](O)[C@@H](O)[C@H](O[C@@H]2O[C@@H](C)[C@](O)(C=O)[C@H]2O[C@@H]2O[C@@H](CO)[C@H](O)[C@@H](O)[C@@H]2NC)[C@@H](N/C(N)=N\[H])[C@@H]1O [streptomycin]
effect on gut microbial community (gut microbiota): altered gut microbial community structure while decreasing diversity and colonization level

From US20230181659A1, “PHAGE-MEDIATED DELIVERY OF GENES TO GUT MICROBIOME” (priority 2020, published 2023)
